Measurements taken from paper PMC4206519, “Lack of Renoprotective Effect of Chronic Intravenous Angiotensin-(1-7) or Angiotensin-(2-10) in a Rat Model of Focal Segmental Glomerulosclerosis” (PLoS ONE, 2014).
Read-outs that look alike come from different tables or passages of the source. Where no end group is shown, it is not given here.

Columns and labels:
human AT2 receptor = target: T1, human AT2 receptor (Homo sapiens, UniProt P50052); assay: Ang peptide radioligand binding assay, displacement of [125I]-Ang-II (AT2R/HEK); conditions: competition with [125I]-Ang-II, HEK-293 cells stably transfected with human AT2 receptor, 90 min on ice, log-logit analysis; average of n studies
T1 construct: expressed in transfected cells
T1 sequence (P50052 1-363): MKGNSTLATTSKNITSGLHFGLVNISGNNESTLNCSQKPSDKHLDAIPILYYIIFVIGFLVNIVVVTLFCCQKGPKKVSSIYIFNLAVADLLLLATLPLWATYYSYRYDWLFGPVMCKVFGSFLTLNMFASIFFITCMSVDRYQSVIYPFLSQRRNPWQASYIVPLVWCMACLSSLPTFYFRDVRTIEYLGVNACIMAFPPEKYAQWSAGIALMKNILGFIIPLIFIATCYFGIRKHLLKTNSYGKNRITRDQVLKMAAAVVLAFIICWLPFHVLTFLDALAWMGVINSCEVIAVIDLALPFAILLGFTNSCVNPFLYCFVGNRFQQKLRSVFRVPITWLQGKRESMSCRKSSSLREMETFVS
Experimental: (§1) HEK-293 cells stably expressing AT1a receptor were maintained and characterized as previously described. HEK-293 cells expressing AT2 receptors were transfected with pcDNA3.1 plasmid containing human AT2 receptor DNA using Lipofectamine 2000 at 1 µg DNA/well of a six-well plate according to manufacturer's protocol (Invitrogen, Carlsbad, CA). Transfected cells were maintained in Minimal Essential Medium (MEM) containing 10% fetal bovine serum and 1% antibiotic/fungizone/antimycotic with addition of geneticin (400 µg/ml) for stable transfectants. Confluent monolayers cells were deprived of serum (0.1% bovine serum albumin) for 2–24 hours before assay. […] After 90 min of incubation on ice, cells were gently washed 3 times with ice cold 0.9% sodium chloride followed by solubilization of the cell monolayer with 0.1 N NaOH/0.1% SDS. The solubilized sample was placed into a gamma counter for determination of cell-associated radioactivity. Log-logit analysis of the obtained competition curves was performed for determination of IC50 values.

AT1a receptor = target: T2, AT1a receptor (Rattus norvegicus, UniProt P25095); assay: Ang peptide radioligand binding assay, displacement of [125I]-Ang-II (AT1R/HEK); conditions: competition with [125I]-Ang-II, HEK-293 cells stably expressing AT1a receptor, 90 min on ice, log-logit analysis; average of n studies
T2 construct: expressed in transfected cells
T2 sequence (P25095 1-359): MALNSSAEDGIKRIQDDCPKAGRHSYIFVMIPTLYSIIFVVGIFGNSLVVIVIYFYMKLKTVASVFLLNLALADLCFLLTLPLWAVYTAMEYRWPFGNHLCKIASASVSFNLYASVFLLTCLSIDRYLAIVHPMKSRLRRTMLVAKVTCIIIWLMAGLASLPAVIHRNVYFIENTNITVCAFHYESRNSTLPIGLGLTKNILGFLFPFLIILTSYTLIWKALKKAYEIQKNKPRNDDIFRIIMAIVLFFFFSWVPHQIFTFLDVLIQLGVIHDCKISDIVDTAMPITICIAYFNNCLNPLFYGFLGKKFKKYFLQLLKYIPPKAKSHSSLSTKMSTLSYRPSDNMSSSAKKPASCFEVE
Experimental: as §1

[1] = tested on: kidney homogenates of uni-nephrectomized FHH rats; assay: Intrarenal Ang peptide content by parallel reaction monitoring (LC/MS/MS), late disease protocol; format: in vivo, rat; conditions: late disease model; for intrarenal level of the exogenously administered peptide (in words): kidneys harvested at sacrifice, chronic iv infusion 100-400 ng/kg/min, whole kidney homogenate, LC-MS/MS (PRM)
Experimental: Stable isotope labeled peptide standards (SIS, ^13C ^15N, New England Peptide, Gardner, MA) were resuspended in water to 1 nM and stored at −80C in Lo-Bind microcentrifuge tubes (Eppendorf) with the exception of Ang-I, which was resuspended in 30% acetonitrile and stored at 0.4 nM final concentration. Ang-(1-7), Ang-II, and Ang-(2-10) contained isotopically labeled valine. Ang-I contained isotopically labeled valine and proline. Peptide concentration was determined by amino acid analysis.
Tissues were stored frozen at −80°C in 15 ml Falcon tubes. Whole kidney tissues were submerged in liquid nitrogen for 5 minutes and kidney tissue was processed in a biopulverizer (MidSci, St. Louis, MO) to a fine powder. Pulverized tissue was transferred to a 5-ml glass dounce with a chilled spatula. Approximately 200 mg of tissue was used for peptide extraction. Four volumes of ice cold methanol (Burdick and Jackson, LC-MS Grade) were added to the tissue followed by a volume of water (Burdick and Jackson, LC-MS Grade) containing O-phenanthroline (Sigma Aldrich) and SIS peptides resulting in a final concentration of 1 mM and 1.8 nM, respectively. Tissue was homogenized in the dounce on ice for 1 minute. An aliquot of tissue homogenate was transferred to a 2-ml lo-bind microcentrifuge tube and stored at −20°C for at least 1 hour. Samples were further centrifuged for 10 minutes at 10,000×g at 4°C. An aliquot equal to approximately 60% of the total sample volume was transferred to a lo-bind tube equivalent to 100 mg of tissue (wet weight). From this aliquot, a volume equal to the wet weight of the starting tissue was transferred to a new lo-bind tube and diluted with ice cold water so that the final concentration of methanol was 40%. […] The filtrate volume was estimated by variable volume pipet and recorded to determine the fraction of starting volume collected. […] Declustering potential was set at 80 V. For parallel reaction monitoring (PRM) quantification, the dominant charge state of each peptide was determined and collision energies were optimized manually for SIS peptides (Table 1). […]

[2] = tested on: uni-nephrectomized fawn-hooded hypertensive (FHH) rats; conditions: late disease model; for systolic blood pressure at 6 weeks of treatment / systolic blood pressure after 12 weeks of treatment: tail-cuff, mean ± SEM, SEM; for systolic blood pressure at 6 weeks of treatment / degree of glomerulosclerosis (semiquantitative score 0-4): captopril 100 mg/kg/d or losartan 20 mg/kg/d orally; for systolic blood pressure at 6 weeks of treatment: vehicle 179±2; for systolic blood pressure after 12 weeks of treatment: captopril 100 mg/kg/d, losartan 20 mg/kg/d orally, low-dose Ang-(2-10) 100 ng/kg/min iv, vehicle 185±3; for degree of glomerulosclerosis (semiquantitative score 0-4): vehicle 2.29±0.9
Experimental: (§2) Male FHH rats (In-house colony established from animals obtained from Charles River Laboratories, Wilmington, MA) were housed at a certified animal facility at 22°C and a 12∶12 h light/dark cycle. […] All surgeries were performed under isoflurane anesthesia (5% induction, 2% maintenance), at 37°C, and perioperative buprenorphine.
(§3) Following anesthesia, an incision was made in the left flank; the kidney was exposed and excised after ligation of the pedicle. […] Under anesthesia, a mini-pump was placed in a subcutaneous pocket. […] Pumps were replaced once during the treatment period. For the early disease model, five groups of rats were examined. […] For the late disease model, eight groups of rats were examined. […] The dosages of the Ang peptides were selected based on previous studies where Ang-(1-7) was similarly administered using implanted osmotic mini-pumps, [16], [17], [26]. […] Systemic blood pressure was measured by tail-cuff sphygmomanometer (Natume, Japan). Animals were placed on metabolic cages for urine collection at pre-specified time points. Urinary protein excretion was measured by the method of Lowry. Urinary sodium concentration was measured by ion-selective electrodes. At sacrifice, kidneys were harvested for histological analysis and measurement of Ang peptide concentration.
(§4) Upon harvesting, kidneys were cleared of blood by transcardiac perfusion of iced-cold phosphate buffered saline, excised and fixed in 4% paraformaldehyde, embedded in paraffin and processed for microscopic examination. Kidney sections (2-µm) were stained with hematoxylin-eosin (H&E), Jones silver and Periodic Acid Schiff (PAS). Slides were reviewed by an experienced renal pathologist (S.S) in a blinded fashion. Index of glomerulosclerosis was evaluated by a semiquantitative score based on the percentage of the glomerular tuft occupied by sclerotic lesions (0: no lesions, 1: lesions affecting less than 25% of the glomerulus, 2-3-4: lesions affecting 25–50%, 50–75% and 75–100% of the glomerulus, respectively). Tubular injury was rated based on presence of tubular atrophy, microcystic tubular dilation and interstitial fibrosis, from 0 to 3 (0: none; 1: mild; 2: moderate; 3: severe).
(§5) Blood pressure data were analyzed by repeated measures ANOVA. Differences within groups were analyzed using paired t-tests adjusted with Bonferroni modification. Differences between group means at each time point were tested using one-way ANOVA followed by Tukey-Kramer post-hoc test. Urinary protein excretions were log10 transformed and tested using a two-way ANOVA for repeated measures followed by Scheffe post hoc test for differences between the groups. Untransformed 24-hour urinary protein excretions at each time point were then tested using Kruskal-Wallis test. If a significant main effect was detected then differences between groups were tested using the Mann-Whitney U test with the probability adjusted using the Bonferroni modification. Urine sodium was also assessed by two-way ANOVA for repeated measures and pairwise multiple comparisons were made using the Holm-Sidak method. Multiple comparisons of Ang peptide levels were made using ANOVA when data were normally distributed and with log10 transformation when non-normally distributed. Post-hoc pairwise comparisons were made using the Holm-Sidak method. […] For Ang peptide measurements by LC/MS/MS, only values above the LLOQ were utilized for statistical comparisons.

[3] = tested on: uni-nephrectomized fawn-hooded hypertensive (FHH) rats; assay: Model of FSGS, early disease protocol (blood pressure, proteinuria, histology, weights, urine); format: in vivo, rat
Experimental: as §2, §3, §4, §5

| Molecule | IC50 (human AT2 receptor) [nM] | IC50 (AT1a receptor) [nM] | intrarenal level of the exogenously administered peptide (in words) [1] | systolic blood pressure at 6 weeks of treatment [2] [mmHg] | systolic blood pressure after 12 weeks of treatment [2] [mmHg] | degree of glomerulosclerosis (semiquantitative score 0-4) ([2]; week 30, after 12 weeks) | other results |
| --- | --- | --- | --- | --- | --- | --- | --- |
| CC[C@H](C)[C@H](NC(=O)[C@H](Cc1ccc(O)cc1)NC(=O)[C@@H](NC(=O)[C@H](CCCNC(=N)N)NC(=O)[C@@H](N)CC(=O)O)C(C)C)C(=O)N[C@@H](Cc1c[nH]cn1)C(=O)N1CCC[C@H]1C(=O)O [Ang-(1-7)] | 60.9 | 3790 | did not lead to a significant increase |  |  |  |  |
| CC[C@H](C)[C@H](NC(=O)[C@H](Cc1ccc(O)cc1)NC(=O)[C@@H](NC(=O)[C@H](CCCNC(=N)N)NC(=O)[C@@H](N)CC(=O)O)C(C)C)C(=O)N[C@@H](Cc1cnc[nH]1)C(=O)N1CCC[C@H]1C(=O)N[C@@H](Cc1ccccc1)C(=O)O [Ang-II, Angiotensin (Ang) II] |  |  |  |  |  |  | survival (in words) ([2]; Ang-II low-dose 100 ng/kg/min iv, time mark = 6 weeks of treatment): no rats in this group survived beyond that time mark |
| C[C@H](CS)C(=O)N1CCC[C@H]1C(=O)O [Captopril, captopril] |  |  |  | 156±7 | 145±5 | 0.88±0.2 | degree of glomerulosclerosis (semiquantitative score 0-4) ([3]; after 8 weeks, Ang-II 100 ng/kg/min iv, captopril 100 mg/kg/d, mean ± SEM, vehicle 0.4±0.1, SEM): 0.1±0.1; tubular injury score (0-3) ([3]; after 8 weeks, Ang-II 100 ng/kg/min iv, captopril 100 mg/kg/d, mean ± SEM, vehicle 0.8±0.2): non-significant reduction; urinary protein excretion (proteinuria), median (range), after 4 weeks ([3]; captopril 100 mg/kg/d, Lowry method, n=5, vehicle 89 (31–188), p=0.014 vs vehicle): 14 (13–17) mg/day; urinary protein excretion (proteinuria), median (range), after 8 weeks ([3]; captopril 100 mg/kg/d, Lowry method, n=5, vehicle 243 (91–402), p=0.014 vs vehicle): 30 (25–33) mg/day; systolic blood pressure after 4 weeks of therapy ([3]; tail-cuff, captopril 100 mg/kg/d in drinking water, n=5, mean ± SEM, vehicle 161±4, SEM): 117±5 mmHg; systolic blood pressure after 8 weeks of therapy ([3]; tail-cuff, captopril 100 mg/kg/d in drinking water, n=5, mean ± SEM, vehicle 162±4, SEM): 134±3 mmHg; progression of the degree of proteinuria between weeks 18 and 24 ([2]; captopril 100 mg/kg/d orally, vehicle +342±289, p=0.012): -225 ± 453 mg/day; tubular injury score (0-3) ([2]; week 30, after 12 weeks, captopril 100 mg/kg/d orally, printed as captopril vs. vehicle, p<0.05): 2.6±0.4; kidney Ang-II levels compared with vehicle (in words) ([1]; after 12 weeks, captopril 100 mg/kg/d, Mann-Whitney U test p=0.002, n=5/group): lower |
| CCCCc1nc(Cl)c(CO)n1Cc1ccc(-c2ccccc2-c2nn[nH]n2)cc1 [Losartan, losartan] |  |  |  | 155±5 | 146±5 | 1.28±0.7 |  |
| RVYIHPFHL [Ang-(2-10)] | 6.6 | 47.8 | did not lead to a significant increase |  |  |  | demise of treated animals ([2]; 400 ng/kg/min iv): 7 out of the 9; number of rats that survived until the end of the study ([2]; high-dose 400 ng/kg/min iv, 12 weeks, n=9 treated): 2 |
